“And” between values parts separate entries of the source, which are not always exact repeats. Equal values may be shown once.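 Tested at 5 concentrations; 48 h exposure; 96-well plates; endpoints linearly interpolated, else capped at highest concentration. GI50 = concentration required for 50% inhibition of growth. TGI denotes the concentration required for complete inhibition of growth.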
Key:
Assay in all cases: DTP human tumour cell line panel, 48 h
T-47D breast = test system: T-47D breast
MALME-3M melanoma = test system: MALME-3M melanoma
KM12 colon = test system: KM12 colon
M14 melanoma = test system: M14 melanoma
OVCAR-3 ovarian = test system: OVCAR-3 ovarian
HCT-116 colon = test system: HCT-116 colon
SN12C renal = test system: SN12C renal
NCI-H23 lung = test system: NCI-H23 lung
RPMI-8226 leukemia = test system: RPMI-8226 leukemia
COLO 205 colon = test system: COLO 205 colon
SR leukemia = test system: SR leukemia
NCI-H226 lung = test system: NCI-H226 lung
SF-268 CNS = test system: SF-268 CNS
SK-MEL-5 melanoma = test system: SK-MEL-5 melanoma
OVCAR-4 ovarian = test system: OVCAR-4 ovarian
CAKI-1 renal = test system: CAKI-1 renal
SK-MEL-2 melanoma = test system: SK-MEL-2 melanoma
SW-620 colon = test system: SW-620 colon
BT-549 breast = test system: BT-549 breast
CCRF-CEM leukemia = test system: CCRF-CEM leukemia
NCI-H522 lung = test system: NCI-H522 lung
NCI-H460 lung = test system: NCI-H460 lung
SK-MEL-28 melanoma = test system: SK-MEL-28 melanoma
SF-539 CNS = test system: SF-539 CNS
MDA-MB-435 = test system: MDA-MB-435
K-562 leukemia = test system: K-562 leukemia
ACHN renal = test system: ACHN renal
PC-3 prostate = test system: PC-3 prostate
HOP-92 NSCLC = test system: HOP-92 NSCLC
HS 578T breast = test system: HS 578T breast
HOP-62 NSCLC = test system: HOP-62 NSCLC
SNB-75 CNS = test system: SNB-75 CNS
HCT-15 colon = test system: HCT-15 colon
SK-OV-3 ovarian = test system: SK-OV-3 ovarian
SF-295 CNS = test system: SF-295 CNS
U251 CNS = test system: U251 CNS
MCF7 breast = test system: MCF7 breast
SNB-19 CNS = test system: SNB-19 CNS
A549 NSCLC = test system: A549 NSCLC
UO-31 renal = test system: UO-31 renal
786-0 renal = test system: 786-0 renal
IGROV1 ovarian = test system: IGROV1 ovarian
MDA-MB-231 breast = test system: MDA-MB-231 breast
OVCAR-8 ovarian = test system: OVCAR-8 ovarian
LOX IMVI melanoma = test system: LOX IMVI melanoma
NCI/ADR-RES ovarian = test system: NCI/ADR-RES ovarian
EKVX NSCLC = test system: EKVX NSCLC
TK-10 renal = test system: TK-10 renal
HL-60(TB) leukemia = test system: HL-60(TB) leukemia
HCC-2998 colon = test system: HCC-2998 colon
OVCAR-5 ovarian = test system: OVCAR-5 ovarian
HT29 colon = test system: HT29 colon
A498 renal = test system: A498 renal
RXF 393 renal = test system: RXF 393 renal
MOLT-4 leukemia = test system: MOLT-4 leukemia
DU-145 prostate = test system: DU-145 prostate
UACC-257 melanoma = test system: UACC-257 melanoma
UACC-62 melanoma = test system: UACC-62 melanoma

O=C(NNc1nc2cc(F)c(F)cc2n2cccc12)c1cccnn1 was tested, and the GI50 (T-47D breast) was 838 nM and 293 nM, the TGI (T-47D breast) was 24500 nM and 9750 nM and the GI50 (MALME-3M melanoma) was 771 nM and 811 nM. For the same compound, the TGI (MALME-3M melanoma) was 28700 nM, the GI50 (KM12 colon) was 378 nM and 336 nM and the TGI (KM12 colon) was 30000 nM and 33300 nM. The GI50 (M14 melanoma) was 309 nM and 197 nM, the TGI (M14 melanoma) was 30000 nM and 11500 nM and the GI50 (OVCAR-3 ovarian) was 227 nM and 243 nM. The TGI (OVCAR-3 ovarian) was 3710 nM and 13200 nM, the GI50 (HCT-116 colon) was 207 nM and 173 nM and the TGI (HCT-116 colon) was 30000 nM and 11900 nM. For the same compound, the GI50 (SN12C renal) was 468 nM and 646 nM, the TGI (SN12C renal) was 30000 nM and 31400 nM and the GI50 (NCI-H23 lung) was 654 nM. The TGI (NCI-H23 lung) was 50800 nM, the GI50 (RPMI-8226 leukemia) was 305 nM and 338 nM and the TGI (RPMI-8226 leukemia) was 1150 nM and 7720 nM. The GI50 (COLO 205 colon) was 384 nM and 321 nM, the TGI (COLO 205 colon) was 30000 nM and 19100 nM and the GI50 (SR leukemia) was 175 nM and 48.6 nM. For the same compound, the GI50 (NCI-H226 lung) was 387 nM and 643 nM, the TGI (NCI-H226 lung) was 14700 nM and 12100 nM and the GI50 (SF-268 CNS) was 364 nM and 274 nM. For the same compound, the TGI (SF-268 CNS) was 30000 nM and > 100000 nM, the GI50 (SK-MEL-5 melanoma) was 491 nM and 271 nM and the TGI (SK-MEL-5 melanoma) was 3350 nM and 2000 nM. The GI50 (OVCAR-4 ovarian) was 209 nM and 201 nM, the TGI (OVCAR-4 ovarian) was 30000 nM and > 100000 nM and the GI50 (CAKI-1 renal) was 261 nM and 251 nM. The TGI (CAKI-1 renal) was 30000 nM and 11200 nM, the GI50 (SK-MEL-2 melanoma) was 963 nM and 1490 nM and the TGI (SK-MEL-2 melanoma) was 30000 nM and 15500 nM. The GI50 (SW-620 colon) was 231 nM and 354 nM, the TGI (SW-620 colon) was 30000 nM and 60300 nM and the GI50 (BT-549 breast) was 1400 nM and 271 nM. For the same compound, the TGI (BT-549 breast) was 30000 nM and 24800 nM, the GI50 (CCRF-CEM leukemia) was 76.5 nM and the TGI (CCRF-CEM leukemia) was 1010 nM. For the same compound, the GI50 (NCI-H522 lung) was 747 nM and 262 nM, the GI50 (NCI-H460 lung) was 134 nM and 81 nM and the TGI (NCI-H460 lung) was 3650 nM and 1960 nM. The GI50 (SK-MEL-28 melanoma) was 504 nM and 515 nM, the TGI (SK-MEL-28 melanoma) was 30000 nM and 22400 nM and the GI50 (SF-539 CNS) was 349 nM and 339 nM. For the same compound, the TGI (SF-539 CNS) was 9180 nM and 8100 nM, the GI50 (MDA-MB-435) was 1160 nM and 811 nM and the TGI (MDA-MB-435) was 30000 nM and 19900 nM. For the same compound, the GI50 (K-562 leukemia) was 374 nM and 323 nM, the TGI (K-562 leukemia) was 30000 nM and 3780 nM and the GI50 (ACHN renal) was 158 nM and 134 nM. The TGI (ACHN renal) was 8320 nM and 6530 nM, the GI50 (PC-3 prostate) was 201 nM and 419 nM and the GI50 (HOP-92 NSCLC) was 398 nM. The TGI (HOP-92 NSCLC) was 8820 nM, the GI50 (HS 578T breast) was 1400 nM and 1040 nM and the TGI (HS 578T breast) was 30000 nM and 79000 nM. For the same compound, the GI50 (HOP-62 NSCLC) was 275 nM and 99.4 nM, the TGI (HOP-62 NSCLC) was 9220 nM and 11300 nM and the GI50 (SNB-75 CNS) was 267 nM and 1910 nM. For the same compound, the TGI (SNB-75 CNS) was 22000 nM and 25400 nM, the GI50 (HCT-15 colon) was 123 nM and 46.8 nM and the TGI (HCT-15 colon) was 30000 nM and 38300 nM. For the same compound, the GI50 (SK-OV-3 ovarian) was 300 nM and 326 nM, the TGI (SK-OV-3 ovarian) was 11400 nM and 17900 nM and the GI50 (SF-295 CNS) was 202 nM and 97.5 nM. For the same compound, the TGI (SF-295 CNS) was 5230 nM and 6170 nM, the GI50 (U251 CNS) was 229 nM and 172 nM and the TGI (U251 CNS) was 30000 nM and 36100 nM. The GI50 (MCF7 breast) was 408 nM and 304 nM, the TGI (MCF7 breast) was 4310 nM and 2830 nM and the GI50 (SNB-19 CNS) was 394 nM and 434 nM. For the same compound, the TGI (SNB-19 CNS) was 30000 nM and > 100000 nM, the GI50 (A549 NSCLC) was 316 nM and 249 nM and the TGI (A549 NSCLC) was 30000 nM and 15000 nM. For the same compound, the GI50 (UO-31 renal) was 105 nM and 41.4 nM, the TGI (UO-31 renal) was 3970 nM and 2340 nM and the GI50 (786-0 renal) was 669 nM and 296 nM. The TGI (786-0 renal) was 30000 nM and 12900 nM, the GI50 (IGROV1 ovarian) was 227 nM and 273 nM and the TGI (IGROV1 ovarian) was 5020 nM and 4690 nM. For the same compound, the GI50 (MDA-MB-231 breast) was 559 nM and 750 nM, the TGI (MDA-MB-231 breast) was 30000 nM and 54700 nM and the GI50 (OVCAR-8 ovarian) was 322 nM and 269 nM. For the same compound, the TGI (OVCAR-8 ovarian) was 30000 nM and > 100000 nM, the GI50 (LOX IMVI melanoma) was 247 nM and 156 nM and the TGI (LOX IMVI melanoma) was 1090 nM and 5270 nM. The GI50 (NCI/ADR-RES ovarian) was 205 nM and 207 nM, the TGI (NCI/ADR-RES ovarian) was 2880 nM and 3560 nM and the GI50 (EKVX NSCLC) was 255 nM and 190 nM. The TGI (EKVX NSCLC) was 30000 nM and 16100 nM, the GI50 (TK-10 renal) was 263 nM and 294 nM and the TGI (TK-10 renal) was 30000 nM and 29000 nM. For the same compound, the GI50 (HL-60(TB) leukemia) was 570 nM and 231 nM, the GI50 (HCC-2998 colon) was 589 nM and 474 nM and the TGI (HCC-2998 colon) was 30000 nM and 19500 nM. For the same compound, the GI50 (OVCAR-5 ovarian) was 693 nM and 2310 nM, the TGI (OVCAR-5 ovarian) was 30000 nM and 32300 nM and the GI50 (HT29 colon) was 644 nM and 542 nM. The TGI (HT29 colon) was 30000 nM and 29200 nM, the GI50 (A498 renal) was 614 nM and 382 nM and the TGI (A498 renal) was 3260 nM and 2450 nM. For the same compound, the GI50 (RXF 393 renal) was 700 nM and 245 nM, the TGI (RXF 393 renal) was 4130 nM and 13200 nM and the GI50 (MOLT-4 leukemia) was 178 nM and 136 nM. The GI50 (DU-145 prostate) was 346 nM and 579 nM, the TGI (DU-145 prostate) was 30000 nM and 16100 nM and the GI50 (UACC-257 melanoma) was 802 nM and 364 nM. The TGI (UACC-257 melanoma) was 2890 nM and 11000 nM, the GI50 (UACC-62 melanoma) was 331 nM and 388 nM and the TGI (UACC-62 melanoma) was 2290 nM and 8830 nM.
